Measurements as given in US20250197377A1, “NOVEL PHARMACEUTICAL SALTS AND POLYMORPHIC FORMS OF AN ERBB AND BTK INHIBITOR” (DIZAL (JIANGSU) PHARMACEUTICAL CO., LTD., priority 2021, published 2025).
Values after ≈ are worked out from the molar mass of the structure shown. Values joined by “and” are separate entries in the source; they are usually repeats but may differ in a detail not shown here. Identical values can stand only once.

Columns and labels:
[1] = PK study of Form A and Form B in Rat; type: in vivo
EGFR 19Del = molecular target: T1, EGFR 19Del (Homo sapiens, UniProt P00533, DEL746-750); experiment: In vitro cell based assay, PD IC50, PC-9
T1 construct: Form A and B in vitro cell based assay; endogenous in cells; host or cells: PC-9

EGFR L858R/T790M = molecular target: T2, EGFR L858R/T790M (Homo sapiens, UniProt P00533, L858R/T790M); experiment: In vitro cell based assay, PD IC50, NCI-H1975
T2 construct: Form A and B in vitro cell based assay; endogenous in cells; host or cells: NCI-H1975

[2] = Stability in storage for Form B (XRPD, DSC); type: physicochemical; details: stored at 2-8° C. for at least 20 d
3T3_YVMA = experiment: In vitro cell based assay, anti-proliferation GI50, 3T3_YVMA; details: HER2 A775_G776insYVMA
Ba/F3_NPH = experiment: In vitro cell based assay, anti-proliferation GI50, Ba/F3_NPH; details: EGFR H773_V774insNPH
A431 = experiment: In vitro cell based assay, anti-proliferation GI50, A431; details: EGFR Wildtype
[3] = Solubility in organic solvents and water; type: physicochemical; details: r.t.
EGFR H773_V774insNPH = molecular target: T3, EGFR H773_V774insNPH (Homo sapiens, UniProt P00533, INS773NPH); experiment: In vitro cell based assay, PD IC50, Ba/F3_NPH
T3 construct: expressed in transfected cells; host or cells: Ba/F3 (Ba/F3_NPH)

[4] = Water activity study of Form A and Form B (slurry, XRPD); type: physicochemical; details: 24~27° C. (before dry)
Method: To study the effects of water on the stability of Form A and Form B, slurry experiments in the systems with different water activity were carried out. Form A or Form B was suspended separately in different water activity systems (Table 4). […] Residual solids were filtered and then dried in the vacuum oven at 45° C. for 8-24 hours. Dry solids were characterized by XRPD.

NCI-H1975 = experiment: In vitro cell based assay, anti-proliferation GI50, NCI-H1975; details: EGFR L858R/T790M
[5] = Milling study of Form B (grinding and jet milling); type: physicochemical
Method: Grinding and jet milling were carried out. About 10 mg Form B was added into mortar and grinded by pestle for 1 min and 2 min. Jet milling of Form B in 500 mg scale was performed. Samples before and after grinding and milling were analyzed by XRPD. • Instrument: Jet mill (Equipment number: PPD-OAJ-1) • Feeding speed: Manual • Feeding pressure: 0.3˜0.6 MPa • Milling One Pressure: 0.4˜0.8 MPa • Milling Two Pressure: 0.4˜0.8 MPa
Grinding and jet milling were carried out to test physical stability of Form B in the milling process. As shown in XRPD results of obtained solids after grinding (FIG. 25), jet milling (FIG. 24), and DSC profile after jet milling (FIG. 26), the crystallinity decreased after grinding, but the crystal form of Form B was unchanged after milling and grinding.

[6] = Solubility in bio-relevant media; type: physicochemical; details: for pH value at 24 h: solubility sample at 24 h
PC-9 = experiment: In vitro cell based assay, anti-proliferation GI50, PC-9; details: EGFR 19Del
[7] = Dynamic moisture sorption analysis (DVS); type: physicochemical
Method: DVS was determined using DVS Advantage-1 or Intrinsic (SMS, UK). The sample was tested at a targeted RH of 10 to 90% full cycle in step mode. The analysis was performed in 10% RH increments. Equilibrium:60 min RH (%) measurement points: First cycle: 0, 10, 20, 30, 40, 50, 60, 70, 80, 90. Second cycle: 90, 80, 70, 60, 50, 40, 30, 20, 10, 0.

[8] = PK study of Form A and Form B in Dog; type: in vivo; details: 10 mg/kg
HER2 A775_G776insYVMA = molecular target: T4, HER2 A775_G776insYVMA (Homo sapiens, UniProt P04626, INS775YVMA); experiment: In vitro cell based assay, PD IC50, 3T3_YVMA
T4 construct: expressed in transfected cells; host or cells: 3T3 (3T3_YVMA)

EGFR Wildtype = molecular target: T5, EGFR Wildtype (Homo sapiens, UniProt P00533); experiment: In vitro cell based assay, PD IC50, A431
T5 construct: Form A and B in vitro cell based assay; endogenous in cells; host or cells: A431

[9] = Form A and Form B inter-conversion study (competitive slurry, XRPD); type: physicochemical
Method: Competitive slurry experiments were conducted to evaluate the relative stability of Form A and Form B. Inter-conversion study was performed at room temperature and 50° C. using single and binary solvents listed in the Table 1 below. About 80 mg (100 mg for 50° C.) of Form A and Form B (1:1, w/w) was weighed into sample vials (8 mL) and then 3 mL (2 mL for 50° C.) of solvents were added to each vial. The obtained suspensions were kept stirring for 7 days at room temperature and 50° C., then filtered at specified time. The wet and dried solids were analyzed by XRPD (dried in vacuum oven at 45° C.).
Form B was dominant in tested solvent systems with water activity below 0.15 at room temperature (24˜27° C.). […] Pure Form A and Form B were stable during drying process (50° C., vacuum) for at least 2 days.

T3 sequence (P00533 with tags, fused parts or gaps INS773NPH): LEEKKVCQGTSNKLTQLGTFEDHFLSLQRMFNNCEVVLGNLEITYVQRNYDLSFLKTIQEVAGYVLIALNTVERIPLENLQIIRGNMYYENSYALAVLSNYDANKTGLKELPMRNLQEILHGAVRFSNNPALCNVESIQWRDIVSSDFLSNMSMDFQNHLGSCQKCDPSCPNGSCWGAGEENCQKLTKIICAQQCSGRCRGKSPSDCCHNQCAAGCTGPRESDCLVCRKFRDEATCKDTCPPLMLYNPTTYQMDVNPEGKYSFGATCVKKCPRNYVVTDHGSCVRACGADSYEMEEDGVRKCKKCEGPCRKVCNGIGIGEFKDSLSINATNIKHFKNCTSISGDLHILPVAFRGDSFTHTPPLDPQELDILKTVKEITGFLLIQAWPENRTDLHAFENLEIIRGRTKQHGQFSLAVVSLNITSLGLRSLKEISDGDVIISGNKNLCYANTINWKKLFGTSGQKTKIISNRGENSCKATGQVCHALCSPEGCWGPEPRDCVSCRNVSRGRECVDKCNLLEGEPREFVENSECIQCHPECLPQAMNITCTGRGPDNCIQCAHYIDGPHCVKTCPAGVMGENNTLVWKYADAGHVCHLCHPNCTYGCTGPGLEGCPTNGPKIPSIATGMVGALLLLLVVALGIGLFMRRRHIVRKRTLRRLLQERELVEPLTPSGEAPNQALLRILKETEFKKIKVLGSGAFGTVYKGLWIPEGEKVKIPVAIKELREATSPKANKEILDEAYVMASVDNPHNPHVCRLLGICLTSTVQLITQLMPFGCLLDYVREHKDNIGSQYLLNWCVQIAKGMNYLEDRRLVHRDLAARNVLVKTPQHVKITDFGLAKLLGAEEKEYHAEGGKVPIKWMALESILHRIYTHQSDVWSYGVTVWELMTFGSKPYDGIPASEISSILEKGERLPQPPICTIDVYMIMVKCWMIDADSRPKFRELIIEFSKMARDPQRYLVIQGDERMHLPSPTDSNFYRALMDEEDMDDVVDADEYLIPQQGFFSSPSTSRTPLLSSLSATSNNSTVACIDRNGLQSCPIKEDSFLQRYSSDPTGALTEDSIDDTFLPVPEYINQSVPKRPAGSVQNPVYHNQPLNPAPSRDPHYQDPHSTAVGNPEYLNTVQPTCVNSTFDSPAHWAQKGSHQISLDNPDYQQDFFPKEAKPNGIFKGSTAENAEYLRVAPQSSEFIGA
T4 sequence (P04626 with tags, fused parts or gaps INS775YVMA): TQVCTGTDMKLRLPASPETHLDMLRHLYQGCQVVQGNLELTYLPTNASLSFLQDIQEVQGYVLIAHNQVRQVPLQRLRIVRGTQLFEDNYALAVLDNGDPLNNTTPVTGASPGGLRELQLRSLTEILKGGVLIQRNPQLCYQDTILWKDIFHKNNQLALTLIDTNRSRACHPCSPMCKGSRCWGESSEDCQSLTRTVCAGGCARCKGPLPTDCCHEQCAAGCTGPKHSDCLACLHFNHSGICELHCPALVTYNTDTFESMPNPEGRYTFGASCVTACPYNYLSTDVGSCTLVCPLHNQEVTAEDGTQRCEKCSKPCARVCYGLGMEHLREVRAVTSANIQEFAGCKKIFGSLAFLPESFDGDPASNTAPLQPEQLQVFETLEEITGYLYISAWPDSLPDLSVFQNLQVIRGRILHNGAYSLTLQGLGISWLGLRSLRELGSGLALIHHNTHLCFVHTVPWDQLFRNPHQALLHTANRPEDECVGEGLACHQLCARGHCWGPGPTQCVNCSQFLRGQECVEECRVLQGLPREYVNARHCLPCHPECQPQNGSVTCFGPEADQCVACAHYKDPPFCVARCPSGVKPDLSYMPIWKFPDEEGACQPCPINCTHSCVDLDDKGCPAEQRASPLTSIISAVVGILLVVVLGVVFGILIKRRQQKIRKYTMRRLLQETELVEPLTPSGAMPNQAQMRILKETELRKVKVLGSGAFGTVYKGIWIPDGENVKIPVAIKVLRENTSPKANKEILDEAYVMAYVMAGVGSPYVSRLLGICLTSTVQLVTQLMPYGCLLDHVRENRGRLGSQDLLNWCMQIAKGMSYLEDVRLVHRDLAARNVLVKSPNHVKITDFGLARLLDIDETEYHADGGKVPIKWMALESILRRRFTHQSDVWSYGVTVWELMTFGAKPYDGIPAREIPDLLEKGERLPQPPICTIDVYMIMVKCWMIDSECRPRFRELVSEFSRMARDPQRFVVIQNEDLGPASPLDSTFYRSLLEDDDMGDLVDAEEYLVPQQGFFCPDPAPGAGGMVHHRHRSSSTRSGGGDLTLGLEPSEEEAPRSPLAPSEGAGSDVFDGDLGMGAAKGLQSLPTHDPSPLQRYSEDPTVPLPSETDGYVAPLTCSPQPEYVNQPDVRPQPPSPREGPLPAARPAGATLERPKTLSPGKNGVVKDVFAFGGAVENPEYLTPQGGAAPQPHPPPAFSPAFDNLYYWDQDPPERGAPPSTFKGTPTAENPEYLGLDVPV
T2 sequence (P00533 25-1210 T790M/L858R): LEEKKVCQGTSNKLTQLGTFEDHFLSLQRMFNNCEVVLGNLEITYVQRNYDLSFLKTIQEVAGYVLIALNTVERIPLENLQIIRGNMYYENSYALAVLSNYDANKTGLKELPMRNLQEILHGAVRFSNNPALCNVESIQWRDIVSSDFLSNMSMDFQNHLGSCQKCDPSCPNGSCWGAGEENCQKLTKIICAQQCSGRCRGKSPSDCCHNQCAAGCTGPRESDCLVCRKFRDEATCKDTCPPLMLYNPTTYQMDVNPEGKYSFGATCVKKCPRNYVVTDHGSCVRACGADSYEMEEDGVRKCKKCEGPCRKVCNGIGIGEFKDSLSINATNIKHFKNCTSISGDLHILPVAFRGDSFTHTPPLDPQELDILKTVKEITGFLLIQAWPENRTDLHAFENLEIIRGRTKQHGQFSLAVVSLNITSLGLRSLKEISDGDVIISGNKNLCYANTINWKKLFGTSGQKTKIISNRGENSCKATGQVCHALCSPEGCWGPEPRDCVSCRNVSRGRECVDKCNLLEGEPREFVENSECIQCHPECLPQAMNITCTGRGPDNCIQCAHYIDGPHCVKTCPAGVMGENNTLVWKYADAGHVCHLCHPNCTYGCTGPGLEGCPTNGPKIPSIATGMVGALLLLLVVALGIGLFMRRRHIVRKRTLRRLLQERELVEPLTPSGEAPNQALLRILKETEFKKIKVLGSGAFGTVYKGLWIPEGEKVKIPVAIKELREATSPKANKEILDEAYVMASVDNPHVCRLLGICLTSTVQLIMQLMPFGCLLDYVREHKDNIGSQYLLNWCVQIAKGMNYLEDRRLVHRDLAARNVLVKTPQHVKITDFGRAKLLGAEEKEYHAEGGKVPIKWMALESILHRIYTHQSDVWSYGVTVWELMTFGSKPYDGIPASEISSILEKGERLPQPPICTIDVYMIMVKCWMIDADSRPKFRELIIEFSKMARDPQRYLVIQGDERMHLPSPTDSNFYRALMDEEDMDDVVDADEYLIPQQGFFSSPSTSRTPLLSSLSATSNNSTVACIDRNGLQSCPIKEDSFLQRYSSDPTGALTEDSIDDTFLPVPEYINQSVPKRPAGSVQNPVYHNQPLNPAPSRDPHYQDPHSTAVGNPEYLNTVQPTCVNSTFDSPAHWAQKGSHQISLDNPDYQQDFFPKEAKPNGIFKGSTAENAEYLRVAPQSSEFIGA
T5 sequence (P00533 25-1210): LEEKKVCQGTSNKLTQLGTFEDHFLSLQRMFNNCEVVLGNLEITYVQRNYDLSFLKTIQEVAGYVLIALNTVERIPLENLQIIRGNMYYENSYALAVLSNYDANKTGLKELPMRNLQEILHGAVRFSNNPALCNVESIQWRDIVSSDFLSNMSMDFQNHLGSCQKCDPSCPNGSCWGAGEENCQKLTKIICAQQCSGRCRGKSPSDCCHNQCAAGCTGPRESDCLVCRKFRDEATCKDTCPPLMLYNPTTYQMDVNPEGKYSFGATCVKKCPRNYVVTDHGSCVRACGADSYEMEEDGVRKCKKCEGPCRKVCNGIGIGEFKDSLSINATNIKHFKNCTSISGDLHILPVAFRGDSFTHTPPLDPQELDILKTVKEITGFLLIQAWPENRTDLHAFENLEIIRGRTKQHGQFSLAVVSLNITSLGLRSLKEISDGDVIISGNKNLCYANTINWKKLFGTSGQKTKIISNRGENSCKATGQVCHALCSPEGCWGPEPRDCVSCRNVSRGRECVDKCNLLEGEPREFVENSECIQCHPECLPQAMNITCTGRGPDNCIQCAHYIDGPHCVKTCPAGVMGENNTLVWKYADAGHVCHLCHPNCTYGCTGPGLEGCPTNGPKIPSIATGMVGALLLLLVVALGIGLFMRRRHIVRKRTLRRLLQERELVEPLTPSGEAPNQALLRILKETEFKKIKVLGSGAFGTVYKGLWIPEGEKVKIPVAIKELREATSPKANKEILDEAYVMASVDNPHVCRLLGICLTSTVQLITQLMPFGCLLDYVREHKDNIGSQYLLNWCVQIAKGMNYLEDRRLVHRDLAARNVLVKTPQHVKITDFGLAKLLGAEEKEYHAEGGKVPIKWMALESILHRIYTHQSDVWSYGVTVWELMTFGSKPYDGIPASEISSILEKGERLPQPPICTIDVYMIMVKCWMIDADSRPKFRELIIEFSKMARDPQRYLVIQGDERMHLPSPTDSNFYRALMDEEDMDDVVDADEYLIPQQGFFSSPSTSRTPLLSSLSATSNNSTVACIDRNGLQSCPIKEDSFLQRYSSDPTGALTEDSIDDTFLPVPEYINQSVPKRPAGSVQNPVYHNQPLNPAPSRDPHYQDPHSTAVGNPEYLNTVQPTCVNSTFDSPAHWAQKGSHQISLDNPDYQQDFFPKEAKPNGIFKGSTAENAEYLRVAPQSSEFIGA

Mean AUC0~48 ([1]; 25 mg/kg): 2678 ng·h/mL
Mean Cmax ([1]; 25 mg/kg): 299 ng/mL
Mean t1/2 ([1]; 25 mg/kg): 4.1 h
Median Tmax ([1]; 25 mg/kg): 8.0 h
Mean AUC0~48 ([1]; 75 mg/kg): 8433 ng·h/mL
Mean Cmax ([1]; 75 mg/kg): 672 ng/mL
Mean t1/2 ([1]; 75 mg/kg): 5.8 h
Median Tmax ([1]; 75 mg/kg): 4.0 h
IC50 (EGFR 19Del): 2.29 nM
IC50 (EGFR L858R/T790M): 2.07 nM
Form change after storage (XRPD, DSC) [2]: no form change observed
GI50 (Ba/F3_NPH): 66.3 nM
GI50 (A431): 45.9 nM
Solubility ([3]; Acetone): S < 5.88 mg/ml
Solubility ([3]; Acetonitrile): S < 0.97 mg/ml
Solubility ([3]; Ethyl acetate): S < 1.06 mg/ml
Solubility ([3]; Isopropanol): S ~ 4.677 mg/ml
Solubility ([3]; MTBE): S < 1.57 mg/ml
Solubility ([3]; MeOH): 24.00 < S mg/ml
Solubility ([3]; THF): 12.70 < S mg/ml
Solubility ([3]; water): S < 2.73 mg/ml
IC50 (EGFR H773_V774insNPH): 35.2 nM
XRPD results of slurry in different water activity solvent ([4]; 0% water/acetone, water activity 0, 1 d): Form B
XRPD results of slurry in different water activity solvent ([4]; 0% water/acetone, water activity 0, 3 d): Form B
XRPD results of slurry in different water activity solvent ([4]; 0% water/acetone, water activity 0, 7 d): Form B
XRPD results of slurry in different water activity solvent ([4]; 3% water/acetone, water activity 0.312, 3 d): Form B
XRPD results of slurry in different water activity solvent ([4]; 3% water/acetone, water activity 0.312, 7 d): Form B
XRPD results of slurry in different water activity solvent ([4]; 30% water/acetone, water activity 0.747, 1 d): Form B
XRPD results of slurry in different water activity solvent ([4]; 30% water/acetone, water activity 0.747, 3 d): Form B
XRPD results of slurry in different water activity solvent ([4]; 30% water/acetone, water activity 0.747, 7 d): Form B
XRPD results of slurry in different water activity solvent ([4]; water, 7 d): Form B
GI50 (NCI-H1975): 1.45 nM
Crystallinity after grinding (XRPD) ([5]; grinding): decreased
Crystal form after milling and grinding (XRPD, DSC) ([5]; grinding 1 min and 2 min, jet milling): unchanged
solubility at 0.5 h ([6]; FaSSIF): 150 µg/mL (≈ 257 µM)
solubility at 2 h ([6]; FaSSIF, 2 h): 160 µg/mL (≈ 274 µM)
solubility at 24 h ([6]; FaSSIF, 24 h): 240 µg/mL (≈ 411 µM)
pH value at 24 h ([6]; FaSSIF): 6.43
solubility at 0.5 h ([6]; FeSSIF): 3180 µg/mL (≈ 5440 µM)
Solubility ([6]; FeSSIF, 2 h): 2290 µg/mL (≈ 3920 µM)
solubility at 24 h ([6]; FeSSIF, 24 h): 11200 µg/mL (≈ 19200 µM)
pH value at 24 h ([6]; FeSSIF): 5.50
solubility at 0.5 h ([6]; SGF, simulated gastric fluid): 23500 µg/mL (≈ 40300 µM)
solubility at 2 h ([6]; SGF, simulated gastric fluid, 2 h): 24200 µg/mL (≈ 41400 µM)
solubility at 24 h ([6]; SGF, simulated gastric fluid, 24 h): 25800 µg/mL (≈ 44100 µM)
pH value at 24 h ([6]; SGF): 5.15
solubility at 0.5 h ([6]; SIF, fassgf or other biorelevant): 18 µg/mL (≈ 30.8 µM)
solubility at 2 h ([6]; SIF, fassgf or other biorelevant, 2 h): 25 µg/mL (≈ 42.8 µM)
Solubility ([6]; SIF, 24 h): 520 µg/mL (≈ 890 µM)
pH value at 24 h ([6]; SIF): 6.67
GI50 (PC-9): 4.23 nM
DVS (ΔW %, 80% RH) [7]: 0.04%
IC50 (HER2 A775_G776insYVMA): 3.26 nM
IC50 (EGFR Wildtype): 54.1 nM
Stability of pure form during drying process ([9]; 50° C., vacuum, at least 2 days): stable
Relative stability of Form A and Form B in competitive slurry ([9]; 50° C., all the tested solvent systems except pure water): more stable than Form A
Relative stability of Form A and Form B in competitive slurry ([9]; tested solvent systems with water activity below 0.15, room temperature (24~27° C.)): dominant
Compound: C=CC(=O)Nc1cc(Nc2nccc(Nc3cc(Cl)c(F)cc3C(C)(C)O)n2)c(OC)cc1N1CC[C@@H](N(C)C)C1 [Form B, (R)-N-(5-((4-((5-chloro-4-fluoro-2-(2-hydroxypropan-2-yl)phenyl)amino)pyrimidin-2-yl)amino)-2-(3-(dimethylamino)pyrrolidin-1-yl)-4-methoxyphenyl)acrylamide]
GI50 (3T3_YVMA): 44.5 nM
AUC0-24 h ([8]; Female (individual animals)): 3.14 hr*μM/(mg/kg) and 3.75 hr*μM/(mg/kg)
AUC0-24 h ([8]; Male (individual animals)): 2.88 hr*μM/(mg/kg) and 5.29 hr*μM/(mg/kg)
